Assay results taken from PubChem BioAssay (NCI).
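Each compound was tested at five concentrations against cells in 96-well plates for 48 hours. At the GI50, growth is halved. The concentration for full growth arrest is given as TGI.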

Key:
Assay in all cases: DTP human tumour cell line panel, 48 h
DLD-1 colon = test system: DLD-1 colon
DMS 114 small cell lung = test system: DMS 114 small cell lung
LXFL 529 NSCLC = test system: LXFL 529 NSCLC
RXF-631 renal = test system: RXF-631 renal
SNB-78 CNS = test system: SNB-78 CNS
XF 498 CNS = test system: XF 498 CNS
HOP-18 NSCLC = test system: HOP-18 NSCLC
KM20L2 colon = test system: KM20L2 colon
DMS 273 small cell lung = test system: DMS 273 small cell lung

Row | SMILES | TGI (DLD-1 colon) [µM] | TGI (DMS 114 small cell lung) [µM] | TGI (LXFL 529 NSCLC) [µM] | TGI (RXF-631 renal) [µM] | TGI (SNB-78 CNS) [µM] | TGI (XF 498 CNS) [µM] | GI50 (DMS 114 small cell lung) [nM] | GI50 (HOP-18 NSCLC) [nM] | TGI (HOP-18 NSCLC) [µM] | GI50 (KM20L2 colon) [nM] | TGI (KM20L2 colon) [µM] | GI50 (LXFL 529 NSCLC) [nM] | GI50 (XF 498 CNS) [µM] | TGI (DMS 273 small cell lung) [µM]
1 | O=S(O)c1cc(Cl)cc(Cl)c1OCc1ccccc1 | > 100 | > 100 | > 100 | > 100 | > 100 | > 100 | – | – | – | – | – | – | – | –
2 | N#C[S-].[Ce+3].c1cnc2c(c1)ccc1cccnc12.c1cnc2c(c1)ccc1cccnc12.c1cnc2c(c1)ccc1cccnc12 | – | 4.52 | 24.6 | – | – | 8.95 | 1640 | 1200 | 7.53 | 1330 | 14.7 | 2300 | 3.27 | –
3 | Cc1ccc(SSCCCCCS(=O)O)cc1 | > 100 | 45.2 | 28.5 | > 100 | 82.1 | 49.6 | – | – | – | – | – | – | – | –
4 | O=C(NNC(=O)c1nsc2ccccc12)c1ccc(Cl)cc1 | – | – | 39.8 | – | 61.7 | – | – | – | 27.4 | – | 53.8 | – | – | 25.1
